Where no end group is shown, it is not given here.

One experiment has as its system B. subtilis KCTC1021. The experiment in a line: Ultrasensitive radial diffusion assay (URDA), MEC. Conditions: B. subtilis KCTC1021, Gram +, 10 mM PB pH 6.6, 37 °C, x-intercept of units vs log10 concentration, triplicate averaged. Type of experiment: cell-based, Bacillus subtilis. How it is done:
(§1) The antimicrobial activity of the purified peptide was assessed as described previously. We tested the synthetic peptides against several Gram-positive bacteria including two Bacillus subtilis strains, Micrococcus luteus, Staphylococcus aureus, and Streptococcus iniae, Gram-negative bacteria including three Escherichia coli strains, Aeromonas hydrophila, Edwardsiella tarda, Pseudomonas aeruginosa, Vibrio parahemolyticus, and Salmonella enteric, as well as the yeast Candida albicans. All strains were grown overnight for 18 h in trypticase soy broth (TSB) or sabouraud dextrose broth (SDB) at the appropriate temperature (25 °C for A. hydrophila, E. tarda, P. aeruginosa, S. iniae, and V. parahemolyticus and 37 °C for the other strains). After an overnight incubation, the bacterial and C. albicans suspensions were diluted to a McFarland turbidity standard of 0.5 (Vitek Colorimeter #52-1210; Hach, Loveland, CO, USA) corresponding to ~10^8 CFU/mL for bacteria and ~10^6 CFU/mL for C. albicans. One-half milliliter of diluted bacterial or C. albicans suspension was added to 9.5 mL of underlay gel containing 5 × 10^6 CFU/mL or 5 × 10^4 CFU/mL in 10 mM phosphate buffer (PB; pH 6.6) with 0.03% TSB or 0.03% SDB and 1% Type I (low EEO) agarose. The purified peptide was serially diluted twofold in 5 μL of acidified water (0.01% HAc), and each dilution was added to 2.5-mm-diameter wells made in the 1-mm-thick underlay gels. After incubation for 3 h at either 25 °C (for A. hydrophila, E. tarda, P. aeruginosa, S. iniae, and V. parahemolyticus) or 37 °C (the other strains), the bacterial or yeast suspension was overlaid with 10 mL of double-strength overlay gel containing 6% TSB or 6% SDB with 10 mM PB (pH 6.6) in 1% agarose. Plates were incubated for an additional 18–24 h, after which the clearing zone diameters were measured. After subtracting the diameter of the well, the clearing zone diameter was expressed in units (0.1 mm = 1 U).
(§2) All tested bacteria and yeast were prepared as described above. The minimal effective concentration (MEC, μg/mL) of the synthetic peptides was calculated as the x-intercept of a plot of units against the log10 of the peptide concentration. […] The antimicrobial assay was performed in triplicate and the results were averaged.

A further experiment concerns B. subtilis RM125. The experiment is described as follows: URDA, MEC. In kind it is cell-based, Bacillus subtilis. Conditions: B. subtilis RM125, Gram +, pH 6.6, 37 °C, triplicate averaged. How it is done:
as §1, §2

Another experiment concerns M. luteus ATCC9341. The experiment is described as follows: URDA, MEC. Type of experiment: cell-based, Micrococcus luteus. The note with it: M. luteus ATCC9341, Gram +, pH 6.6, 37 °C, triplicate averaged. The method, then:
as §1, §2

The next experiment concerns S. aureus RM4220. The experiment in a line: URDA, MEC. Type of experiment: cell-based, Staphylococcus aureus. Conditions: S. aureus RM4220, Gram +, pH 6.6, 37 °C, triplicate averaged. The method, then:
as §1, §2

For another experiment, the system named is E. coli KCTC1116. The experiment is described as follows: URDA, MEC. Type of experiment: cell-based, Escherichia coli. The note with it: E. coli KCTC1116, Gram −, pH 6.6, 37 °C, triplicate averaged. How it is done:
as §1, §2

Another experiment has as its system E. coli ML35p. The experiment is described as follows: URDA, MEC. In kind it is cell-based, Escherichia coli. Conditions: Gram −, pH 6.6, 37 °C, triplicate averaged. The method, then: as §1, §2
Another experiment relates to P. aeruginosa KCTC2004. The experiment in a line: URDA, MEC. The note with it: P. aeruginosa KCTC2004, Gram −, pH 6.6, 25 °C, triplicate averaged. Type of experiment: cell-based, Pseudomonas aeruginosa. The method, then:
as §1, §2

Another experiment concerns S. enterica KCTC2514. The experiment is described as follows: URDA, MEC. Type of experiment: cell-based, Salmonella enteric. The note with it: S. enterica KCTC2514, Gram −, pH 6.6, 37 °C, triplicate averaged. How it is done:
as §1, §2

The next experiment concerns A. hydrophila KCTC2358. The experiment in a line: URDA, MEC. The note with it: fish pathogen A. hydrophila KCTC2358, Gram −, pH 6.6, 25 °C, triplicate averaged. In kind it is cell-based, Aeromonas hydrophila. How it is done: as §1, §2
Another experiment concerns E. tarda H-4. The experiment is described as follows: URDA, MEC. The note with it: fish pathogen E. tarda H-4, Gram −, pH 6.6, 25 °C, triplicate averaged. In kind it is cell-based, Edwardsiella tarda. The method, then: as §1, §2
The test system of a further experiment is S. iniae FP5229. The experiment is described as follows: URDA, MEC. Type of experiment: cell-based, Streptococcus iniae. Conditions: fish pathogen S. iniae FP5229, Gram +, pH 6.6, 25 °C, triplicate averaged. The method, then: as §1, §2
Experiment [1] deals with V. parahemolyticus KCCM41664. The experiment in a line: URDA, MEC. In kind it is cell-based, Vibrio parahemolyticus. Conditions: fish pathogen V. parahemolyticus KCCM41664, Gram −, pH 6.6, 25 °C, triplicate averaged. How it is done:
as §1, §2

For a further experiment, the system named is C. albicans KCTC7965. The experiment is described as follows: URDA, MEC. In kind it is cell-based, Candida albicans. The note with it: C. albicans KCTC7965, yeast, pH 6.6, 37 °C, triplicate averaged. How it is done:
as §1, §2

In experiment [2] the test system is E. coli ML35p outer membrane. The experiment is described as follows: Outer membrane permeabilization, NPN uptake assay. In kind it is cell-based, Escherichia coli. Conditions: peptide 40 μg/mL, 3 min after addition, 25 °C, 5 mM HEPES pH 7.2; order 2A > 6A > 1N > 5A; triplicate. The method, then:
(§3) The outer membrane-permeabilizing activity of peptides was determined using the 1-N-phenylnapthylamine (NPN) uptake assay as described by Koo et al.. Briefly, an overnight culture of E. coli ML35p was transferred to fresh TSB medium and grown to A600 of 0.5–0.6. Cells were harvested, washed, and resuspended in the same volume of buffer (5 mM HEPES, pH 7.2, 5 mM KCN, and 5 mM glucose). Next, 20 μL of 0.5 mM NPN was added and mixed with 1 mL of cells, and peptide samples (40 μg/mL) were added after 3 min. The increase in fluorescence due to partitioning of NPN into the outer membrane was measured 3 min after the addition of peptides using a spectrofluorometer (LS 50B Fluorescence Spectrometer; PerkinElmer, Waltham, MA, USA) at an excitation wavelength of 350 nm and an emission wavelength of 420 nm at 25 °C. The extent of cytoplasmic membrane permeabilization was determined by measuring β-galactosidase activity in E. coli ML35p using O-nitrophenyl-β-D-galactopyranoside (ONPG), a nonmembrane-permeative chromogenic substrate. Mid-logarithmic phase E. coli cells were washed in 10 mM sodium phosphate buffer (NaPB), pH 7.4, and resuspended in the same buffer with 1.5 mM ONPG. The hydrolysis of ONPG to O-nitrophenol over time was monitored spectrophotometrically at 420 nm following the addition of peptide samples. Membrane permeabilization assays were performed in triplicate and the results were averaged.

Experiment [3] concerns E. coli ML35p inner cytoplasmic membrane. The experiment is described as follows: Cytoplasmic membrane permeabilization, β-galactosidase/ONPG assay. Type of experiment: cell-based, Escherichia coli. The note with it: peptide 40 μg/mL, 10 mM NaPB pH 7.4, 1.5 mM ONPG; triplicate. How it is done:
as §3

For the substance RFPKLMMKLLV-NH2 [ofLBP 2A], the “Minimal Effectives Concentration” value came to 0.8 µg/mL with B. subtilis KCTC1021; 1.2 µg/mL in the experiment on B. subtilis RM125; 5.7 µg/mL in the experiment with M. luteus ATCC9341; 5.0 µg/mL in the experiment on S. aureus RM4220; 1.2 µg/mL in the experiment with E. coli KCTC1116; 0.6 µg/mL in the experiment on E. coli ML35p. Besides, the “Minimal Effectives Concentration” value with P. aeruginosa KCTC2004 turned out to be 6.6 µg/mL; in the experiment with S. enterica KCTC2514, 1.2 µg/mL; in the experiment on A. hydrophila KCTC2358, 3.6 µg/mL; in the experiment with E. tarda H-4 it was 62.5 µg/mL; with S. iniae FP5229, 3.0 µg/mL; in experiment [1], 1.7 µg/mL. Besides, in the experiment with C. albicans KCTC7965, the “Minimal Effectives Concentration” value stood at 5.6 µg/mL. In addition, the “Outer membrane permeabilization ability (NPN fluorescence)” value in [2] was “significant outer membrane permeabilization ability”. Moreover, the “Inner cytoplasmic membrane permeabilization ability (ONPG hydrolysis, 420 nm)” value in experiment [3] is on record as “strong permeabilization ability”.
